The values that follow come from patent US12655094B2, “Cannabinoid sulfate esters, their salts and uses thereof” (LONDON PHARMACEUTICALS AND RESEARCH CORPORATION, priority 2020, dated 2026).

Structures can show the parent of a compound that is named as a salt.

The subject of one data set is intraocular pressure. As to conditions: normotensive rabbit; cited from earlier work.
For data set [1] the following is noted: pH 7.4; cited from earlier work.
Data set [2] is described as follows: Pharmacokinetic profile of cannabinoid sulfate esters compared to CBD. As to conditions: for Tmax / Cmax / half-life: plasma.
From the text: The PK profile of certain exemplary cannabinoid sulfate esters, including the half-life (T1/2), maximum plasma concentration (Cmax), and time to reach Cmax (Tmax), is shown compared to CBD in the table below.

Turning to `CCCCC/C=C\C/C=C\C/C=C\C/C=C\CCCC(=O)NCCOP(=O)(O)O` [phosphate ester pro-drug of anandamide], the intraocular pressure result in the data set with intraocular pressure was “reduced the intraocular pressure”. Besides, the “increase of aqueous solubility over the parent endocannabinoid” value in data set [1] is > 16 500 fold.
The compound `C=C(C)[C@@H]1CCC(C)=C[C@H]1c1c(O)cc(CCCCC)cc1OS(=O)(=O)O` [CBD sulfate piperazinium salt, piperazin-1-ium (1′R,2′R)-6-hydroxy-5′-methyl-4-pentyl-2′-(prop-1-en-2-yl)-1′,2′,3′,4′-tetrahydro-[1,1′-biphenyl]-2-yl sulfate] registered a T1/2 in data set [2] (half-life) of 3.0 h. Also, in data set [2], the Tmax (as a rule, the time from dosing to the highest level) stood at 1 h. Moreover, the highest level in data set [2] (Cmax, maximum plasma concentration) (Cmax) was 19 ng/mL.
Turning to `C=C(C)[C@@H]1CCC(C)=C[C@H]1c1c(O)cc(CCCCC)cc1OS(=O)(=O)O` [CBD sulfate morpholinium salt, morpholin-4-ium (1′R,2′R)-6-hydroxy-5′-methyl-4-pentyl-2′-(prop-1-en-2-yl)-1′,2′,3′,4′-tetrahydro-[1,1′-biphenyl]-2-yl sulfate], in data set [2], the highest concentration (Cmax) (commonly the maximum level reached in the sampled fluid or tissue) came to 10 ng/mL; the Tmax was 1 h; the half-life – broadly, the time needed for the level to fall by half in the phase considered – is 32.7 h.
In the case of `C=C(C)[C@@H]1CCC(C)=C[C@H]1c1c(O)cc(CCCCC)cc1OS(=O)(=O)[O-].[Na+]` [CBD sulfate sodium salt, sodium (1′R,2′R)-6-hydroxy-5′-methyl-4 pentyl-2′-(prop-1-en-2-yl)-1′,2′,3′,4′-tetrahydro-[1,1′-biphenyl]-2-yl sulfate], in data set [2], the Cmax came to 12 ng/mL, the Tmax was found to be 1 h and the half-life was 2.9 h.
On the same counts, the results for `C=C(C)[C@@H]1CCC(C)=C[C@H]1c1c(O)cc(CCCCC)cc1O` [CBD, cannabidiol, reference compound] are 4.8 ng/mL, 0.5 h and 3.9 h.
